According to patent publication US12612403B2, “Nitrogen-containing heterocyclic derivative inhibitor, and preparation method therefor and use thereof” (SHANGHAI HANSOH BIOMEDICAL CO., LTD., priority 2024, dated 2026):
pIC50: −log10 of the molar value.

Test system: PCSK9 secreted by HepG2 cells
Experiment: Effect on the concentration of PCSK9 secreted by HepG2 cells (ELISA)
Format: cell-based
Settings: Homo sapiens, 48 hours, PCSK9 in culture medium by ELISA
Protocol: 1. Experimental objective: To detect the inhibitory effect of the compounds on PCSK9.
2. Experimental method: • 1) HepG2 cell strain was cultured in the complete culture medium at 37° C., 5% CO2 to 70-90% confluence. • 2) The cells were digested and resuspended in the experimental culture medium, inoculated at 25,000 cells/well/200 μL in a 96-well cell culture plate, and cultured at 37° C. and 5% CO2 for 20-24 hours. • 3) The culture medium was removed from the cell culture plate, and the cell culture plate was washed once by adding 200 ul of the experimental culture medium to each well. • 4) Preparation of positive control compound and compound to be tested: the positive control compound and the compound to be tested were diluted on the compound plate. • 5) The diluted compound was added to the cell culture plate at 250 μL per well and incubated at 37° C. and 5% CO2 for 48 hours. • 6) The cell culture medium was collected at 200 μL per well and cryopreserved at −80° C. for later use. • 7) A sample of the cell culture medium was taken from the −80° C. cryopreservation condition, dissolved, vortexed, and centrifuged for later use. • 8) Preparation of standard curve: corresponding volumes of Dilution buffer were successively added to respective standard tubes, and in the order of the concentrations of 10, 5, 2.5, 1.25, 0.625, 0.313, 0.16, 0 ng/mL, the standard was diluted in series by taking the corresponding volume from the original tube or the last concentration tube. • 9) Preparation of washing liquid: 10x Wash buffer was diluted into 1x with Milli-Q for later use. • 10) According to the standard curve wells and sample wells set according to a plate map, 100 μL/well of the corresponding standards and culture medium samples were added to the wells, with 2 replicate wells. A self-adhesive seal was applied, the plate was placed on a plate shaker at room temperature, gently shaken, uniformly mixed, and incubated for 1 hour. • 11) The plate was placed on the plate washer, the washing liquid was set to 350 μL per well, and the plate was washed 4 times repeatedly. • 12) 100 μL/well of an HRP-conjugated detection antibody was added, a self-adhesive seal was applied, and the plate was placed on the plate shaker, well mixed uniformly, and incubated for 1 hour. • 13) The plate was placed on the plate washer, the washing liquid was set to 350 μL per well, and the plate was washed 4 times repeatedly. • 14) 100 μL/well of Substrate reagent was added, and the plate was placed in the dark, applied with a self-adhesive seal, placed on the plate shaker, well mixed uniformly, and incubated for 10-20 minutes. • 15) 100 μL of Stop solution (1N H2SO4) was added to each well and mixed uniformly. • 16) The optical density (OD) value in each well was measured in sequence at a wavelength of 450 nm by the microplate reader. Detection was carried out within 30 min after the reaction was stopped.
3. Experimental data processing method: After the OD values were read by the microplate reader, the OD value of the 0-concentration standard in the standard group was subtracted from the OD values of the standards, control group, and samples to obtain the actual OD values for these wells. A standard curve was plotted with Graphpad and the concentration of the sample was calculated. If the dilution was performed during the sample detection, the calculated sample concentration was necessarily multiplied by the corresponding dilution ratio in the final calculation, which was the actual concentration of the sample. Inhibition rate=(actual concentration in control−actual concentration in sample)/actual concentration in control*100. According to the inhibition rates corresponding to the different concentrations, IC50 was derived by Graphpad.

| SMILES | pIC50 |
| --- | --- |
| Cc1cc(N[C@H]2CC[C@H](Nc3nc4cc(C(F)(F)F)ccn4n3)C2)ncc1N1Cc2cccnc2C1=O [Example 113] | 5.16 |
| O=C1c2ccc(F)cc2CN1c1ccc(N[C@H]2CC[C@H](Nc3nc4cc(C(F)(F)F)ccn4n3)C2)nc1 [Example 86, 5-fluoro-2-(6-(((1S,3S)-3-((7-(trifluoromethyl)-[1,2,4]triazolo[1,5-a]pyridin-2-yl)amino)cyclopentyl)amino)pyridin-3-yl)isoindolin-1-one] | 6.05 |
| CC(C)(O)c1ccn(-c2ccc(N[C@H]3CC[C@H](Nc4nc5cc(C(F)(F)F)ccn5n4)C3)nc2)c(=O)c1 [Example 81, 4-(2-hydroxypropan-2-yl)-6′-(((1S,3S)-3-((7-(trifluoromethyl)-[1,2,4]triazolo[1,5-a]pyridin-2-yl)amino)cyclopentyl)amino)-2H-[1,3′-bipyridine]-2-one] | 4.58 |
| Cc1cc2c(c(C)n1)CN(c1ccc(N[C@H]3CC[C@H](Nc4nc5cc(F)ccn5n4)C3)nc1)C2=O [Example 51, 2-(6-(((1S,3S)-3-((7-fluoro-[1,2,4]triazolo[1,5-a]pyridin-2-yl)amino)cyclopentyl)amino)pyridin-3-yl)-4,6-dimethyl-2,3-dihydro-1H-pyrrolo[3,4-c]pyridin-1-one] | 4.67 |
| Cc1cc2c(c(C#N)n1)CN(c1ccc(N[C@H]3CC[C@H](Nc4nc5cc(C(F)(F)F)ccn5n4)C3)nc1)C2=O [Example 90, 6-methyl-1-carbonyl-2-(6-(((1S,3S)-3-((7-(trifluoromethyl)-[1,2,4]triazolo[1,5-a]pyridin-2-yl)amino)cyclopentyl)amino)pyridin-3-yl)-2,3-dihydro-1H-pyrrolo[3,4-c]pyridine-4-carbonitrile] | 5.57 |
| O=C1c2ncc(Cl)cc2CN1c1ccc(N[C@H]2CC[C@H](Nc3nc4cc(C(F)(F)F)ccn4n3)C2)nc1 [Example 95] | 6.15 |
| O=C1c2cccc(C(F)(F)F)c2CN1c1ccc(N[C@H]2CC[C@H](Nc3nc4cc(F)ccn4n3)C2)nc1 [Example 26] | 4.64 |
| CC(C)(O)c1cccn(-c2ccc(N[C@H]3CC[C@H](Nc4nc5cc(C(F)(F)F)ccn5n4)C3)nc2)c1=O [Example 63, 3-(2-hydroxypropan-2-yl)-6′-(((1S,3S)-3-((7-(trifluoromethyl)-[1,2,4]triazolo[1,5-a]pyridin-2-yl)amino)cyclopentyl)amino)-2H-[1,3′-bipyridine]-2-one] | 4.58 |
| O=c1ccccn1-c1ccc(N[C@H]2CC[C@H](Nc3nc4cc(C(F)(F)F)ccn4n3)C2)nc1 [Example 426] | 4.85 |
| N#Cc1cnc2c(c1)CN(c1ccc(N[C@H]3CC[C@H](Nc4nc5cc(C(F)(F)F)ccn5n4)C3)nc1)C2=O [Example 96] | 4.90 |
| Cc1cccnc1C(=O)Nc1ccc(N[C@H]2CC[C@H](Nc3nc4cc(C(F)(F)F)ccn4n3)C2)nc1 [Example 60] | 4.56 |
| O=C1N(c2ccc(N[C@H]3CC[C@H](Nc4nc5cc(C(F)(F)F)ccn5n4)C3)nc2)CCC12CC2 [Example 58, 5-(6-(((1S,3S)-3-((7-(trifluoromethyl)-[1,2,4]triazolo[1,5-a]pyridin-2-yl)amino)cyclopentyl)amino)pyridin-3-yl)-5-azaspiro[2.4]heptan-4-one] | 4.95 |
| CN(Cc1ccc(N[C@H]2CC[C@H](Nc3nc4cc(C(F)(F)F)ccn4n3)C2)nc1)C(=O)c1ccccn1 [Example 62, N-methyl-N-(6-(((1S,3S)-3-((7-(trifluoromethyl)-[1,2,4]triazolo[1,5-a]pyridin-2-yl)amino)cyclopentyl)amino)pyridin-3-yl)methylpicolinamide] | 4.75 |
| Cc1ccc2c(c1)CN(c1ccc(N[C@H]3CC[C@H](Nc4nc5cc(C(F)(F)F)ccn5n4)C3)nc1)C2=O [Example 85, 5-methyl-2-(6-(((1S,3S)-3-((7-(trifluoromethyl)-[1,2,4]triazolo[1,5-a]pyridin-2-yl)amino)cyclopentyl)amino)pyridin-3-yl)isoindolin-1-one] | 5.59 |
| Cn1c2ccccc2c(=O)n1-c1ccc(N[C@H]2CC[C@H](Nc3nc4cc(C(F)(F)F)ccn4n3)C2)nc1 [Example 87] | 6.22 |
| O=c1nc(O)ccn1-c1ccc(N[C@H]2CC[C@H](Nc3nc4cc(Cl)ccn4n3)C2)nc1 [Example 103] | 5.85 |

Further compounds by rising pIC50, results first:

| pIC50 | SMILES |
| --- | --- |
| 4.63 | O=C1N(c2ccc(N[C@H]3CC[C@H](Nc4nc5cc(F)ccn5n4)C3)nc2)CCC12CC2 [Example 54, 5-(6-(((1S,3S)-3-((7-fluoro-[1,2,4]triazolo[1,5-a]pyridin-2-yl)amino)cyclopentyl)amino)pyridin-3-yl)-5-azaspiro[2.4]heptan-4-one] |
| 4.65 | O=c1ccccn1-c1ccc(N[C@H]2CC[C@H](Nc3nc4cc(C5CC5)ccn4n3)C2)nc1 [Example 427] |
| 4.77 | Cc1ccc2c(n1)CN(c1ccc(N[C@H]3CC[C@H](Nc4nc5cc(C(F)(F)F)ccn5n4)C3)nc1)C2=O [Example 67, 2-methyl-6-(6-(((1S,3S)-3-((7-(trifluoromethyl)-[1,2,4]triazolo[1,5-a]pyridin-2-yl)amino)cyclopentyl)amino)pyridin-3-yl)-6,7-dihydro-5H-pyrrolo[3,4-b]pyridin-5-one] |
| 4.84 | O=c1[nH]cccc1-c1ccc(N[C@H]2CC[C@H](Nc3nc4cc(C(F)(F)F)ccn4n3)C2)nc1 [Example 73, 6′-(((1S,3S)-3-((7-(trifluoromethyl)-[1,2,4]triazolo[1,5-a]pyridin-2-yl)amino)cyclopentyl)amino)-[3,3′-bipyridine]-2(1H)-one] |
| 4.92 | O=C1c2ncc(F)cc2CN1c1ccc(N[C@H]2CC[C@H](Nc3nc4cc(C(F)(F)F)ccn4n3)C2)nc1 [Example 27, 3-Fluoro-6-(6-(((1S,3S)-3-((7-(trifluoromethyl)-[1,2,4]triazolo[1,5-a]pyridin-2-yl)amino)cyclopentyl)amino)pyridin-3-yl)-5,6-dihydro-7H-pyrrolo[3,4-b]pyridin-7-one] |
| 5.28 | O=C1c2cccnc2CN1c1cnc(N[C@H]2CC[C@H](Nc3nc4cc(C(F)(F)F)ccn4n3)C2)c(F)c1 [Example 162] |
| 5.30 | Cc1nccc2c1CN(c1ccc(N[C@H]3CC[C@H](Nc4nc5cc(OC(F)F)ccn5n4)C3)nc1)C2=O [Example 100] |
| 5.57 | CC(C)(C)c1ccc2c(n1)C(=O)N(c1ccc(N[C@H]3CC[C@H](Nc4nc5cc(F)ccn5n4)C3)nc1)C2 [Example 49, 2-(Tert-butyl)-6-(6-(((1S,3S)-3-((7-fluoro-[1,2,4]triazolo[1,5-a]pyridin-2-yl)amino)cyclopentyl)amino)pyridin-3-yl)-5,6-dihydro-7H-pyrrolo[3,4-b]pyridin-7-one] |
| 5.77 | Cc1nccc2c1CN(c1ccc(N[C@H]3CC[C@H](Nc4nc5cc(C(F)(F)F)ccn5n4)C3)nc1)C2=O [Example 57, 4-methyl-2-(6-(((1S,3S)-3-((7-(trifluoromethyl)-[1,2,4]triazolo[1,5-a]pyridin-2-yl)amino)cyclopentyl)amino)pyridin-3-yl)-2,3-dihydro-1H-pyrrolo[3,4-c]pyridin-1-one] |
| 6.10 | N#Cc1cc2c(cn1)CN(c1ccc(N[C@H]3CC[C@H](Nc4nc5cc(C(F)(F)F)ccn5n4)C3)nc1)C2=O [Example 66, 1-carbonyl-2-(6-(((1S,3S)-3-((7-(trifluoromethyl)-[1,2,4]triazolo[1,5-a]pyridin-2-yl)amino)cyclopentyl)amino)pyridin-3-yl)-2,3-dihydro-1H-pyrrolo[3,4-c]pyridine-6-carbonitrile] |
| 6.22 | O=C1c2cc(F)cnc2CN1c1ccc(N[C@H]2CC[C@H](Nc3nc4cc(C(F)(F)F)ccn4n3)C2)nc1 [Example 61, 3-fluoro-6-(6-(((1S,3S)-3-((7-(trifluoromethyl)-[1,2,4]triazolo[1,5-a]pyridin-2-yl)amino)cyclopentyl)amino)pyridin-3-yl)-6,7-dihydro-5H-pyrrolo[3,4-b]pyridin-5-one] |
